Experimental data: paper PMC5218480 (PLoS ONE, 2017)

Test system: MV-4-11 cells
Test: Gene expression microarray analysis (Affymetrix PrimeView) and GSEA
Type: cell-based, human
Parameters: RFU PODN (11730768_x_at) / Fold change /veh PODN (11730768_x_at) / RFU LINC00158 (11744669_a_at) / Fold change /veh LINC00158 (11744669_a_at) / RFU DUSP10 (11751237_a_at) / Fold change /veh DUSP10 (11751237_a_at) / RFU ID3 (11757404_x_at) / Fold change /veh ID3 (11757404_x_at) / RFU PLEKHG5 (11737974_s_at) / Fold change /veh PLEKHG5 (11737974_s_at) / RFU LRRC4B (11730491_at) / Fold change /veh LRRC4B (11730491_at) / RFU GIMAP4 (11747438_a_at) / Fold change /veh GIMAP4 (11747438_a_at) / RFU KRT8 (11758183_x_at) / Fold change /veh KRT8 (11758183_x_at) / RFU CNN1 (11734310_a_at) / Fold change /veh CNN1 (11734310_a_at) / RFU VPS37D (11726825_at) / Fold change /veh VPS37D (11726825_at) / RFU C10orf10 (11716522_x_at) / Fold change /veh C10orf10 (11716522_x_at) / RFU KIR2DL2 /// KIR2DL4 /// KIR2DL5A /// KIR2DL5B /// KIR2DS1 /// KIR2DS2 /// KIR2DS3 /// KIR2DS4 /// KIR3DL3 /// KIR3DL3 /// KIR3DS1 (11738374_at) / Fold change /veh KIR2DL2 /// KIR2DL4 /// KIR2DL5A /// KIR2DL5B /// KIR2DS1 /// KIR2DS2 /// KIR2DS3 /// KIR2DS4 /// KIR3DL3 /// KIR3DL3 /// KIR3DS1 (11738374_at) / RFU C1QL1 (11718748_at) / Fold change /veh C1QL1 (11718748_at) / RFU TMPRSS4 (11747572_a_at) / Fold change /veh TMPRSS4 (11747572_a_at) / RFU HAMP (11756126_x_at) / Fold change /veh HAMP (11756126_x_at) / RFU RNFT2 (11725882_a_at) / Fold change /veh RNFT2 (11725882_a_at) / RFU NR4A2 (11747474_a_at) / Fold change /veh NR4A2 (11747474_a_at) / RFU ABCC12 (11746883_a_at) / Fold change /veh ABCC12 (11746883_a_at) / RFU TMEM136 (11760407_x_at) / Fold change /veh TMEM136 (11760407_x_at) / RFU CLDN22 /// WWC2 (11732394_at) / Fold change /veh CLDN22 /// WWC2 (11732394_at) / RFU HLA-DPB1 (11760878_x_at) / Fold change /veh HLA-DPB1 (11760878_x_at) / RFU SPINT1 (11716480_a_at) / Fold change /veh SPINT1 (11716480_a_at) / RFU GAP43 (11754022_s_at) / Fold change /veh GAP43 (11754022_s_at) / RFU A4GNT (11735810_at) / Fold change /veh A4GNT (11735810_at) / RFU PRB3 (11715151_x_at) / Fold change /veh PRB3 (11715151_x_at) / RFU TUBB4B (11761932_at) / Fold change /veh TUBB4B (11761932_at) / RFU CAPN14 (11732068_a_at) / Fold change /veh CAPN14 (11732068_a_at) / RFU TMCC2 (11721928_a_at) / Fold change /veh TMCC2 (11721928_a_at) / RFU IRGQ (11745062_a_at) / Fold change /veh IRGQ (11745062_a_at) / RFU FAM174B (11720279_a_at) / Fold change /veh FAM174B (11720279_a_at) / RFU TMPRSS4 (11748680_a_at) / Fold change /veh TMPRSS4 (11748680_a_at) / RFU FAM212B (11763350_a_at) / Fold change /veh FAM212B (11763350_a_at) / RFU PLEKHG5 (11743358_a_at) / Fold change /veh PLEKHG5 (11743358_a_at) / RFU ZSCAN30 (11745921_a_at) / Fold change /veh ZSCAN30 (11745921_a_at) / RFU CMKLR1 (11741424_a_at) / Fold change /veh CMKLR1 (11741424_a_at) / RFU LOC101060620 /// MAPK8IP1 (11723275_at) / Fold change /veh LOC101060620 /// MAPK8IP1 (11723275_at) / RFU SPTSSB (11747773_x_at) / Fold change /veh SPTSSB (11747773_x_at) / RFU PRSS12 (11739890_at) / Fold change /veh PRSS12 (11739890_at) / RFU BIN1 (11741810_x_at) / Fold change /veh BIN1 (11741810_x_at) / RFU WNT11 (11732464_a_at) / Fold change /veh WNT11 (11732464_a_at) / RFU C10orf10 (11716521_a_at) / Fold change /veh C10orf10 (11716521_a_at) / RFU C5orf56 (11738089_at) / Fold change /veh C5orf56 (11738089_at) / RFU CYB561 (11721691_x_at) / Fold change /veh CYB561 (11721691_x_at) / RFU ANKRD19P (11752326_a_at) / Fold change /veh ANKRD19P (11752326_a_at) / RFU OR2T12 /// OR2T33 /// OR2T8 (11738714_s_at) / Fold change /veh OR2T12 /// OR2T33 /// OR2T8 (11738714_s_at) / RFU VCAN (11748164_a_at) / Fold change /veh VCAN (11748164_a_at) / RFU JSRP1 (11732532_at) / Fold change /veh JSRP1 (11732532_at) / RFU KRTAP10-11 (11738290_x_at) / Fold change /veh KRTAP10-11 (11738290_x_at) / RFU MYO3A (11730013_a_at) / Fold change /veh MYO3A (11730013_a_at) / RFU EBF3 (11725865_a_at) / Fold change /veh EBF3 (11725865_a_at) / RFU CAMK2N1 (11719241_x_at) / Fold change /veh CAMK2N1 (11719241_x_at) / RFU C5orf56 (11738088_a_at) / Fold change /veh C5orf56 (11738088_a_at) / RFU OLFML3 (11715873_a_at) / Fold change /veh OLFML3 (11715873_a_at) / RFU LOC100653217 /// NTM (11731650_a_at) / Fold change /veh LOC100653217 /// NTM (11731650_a_at) / RFU MAPK11 (11762145_a_at) / Fold change /veh MAPK11 (11762145_a_at) / RFU FIZ1 (11724087_x_at) / Fold change /veh FIZ1 (11724087_x_at) / RFU OASL (11726364_x_at) / Fold change /veh OASL (11726364_x_at) / RFU SOX15 (11748057_x_at) / Fold change /veh SOX15 (11748057_x_at) / RFU CD79A (11719716_a_at) / Fold change /veh CD79A (11719716_a_at) / RFU HIST1H1D (11736915_at) / Fold change /veh HIST1H1D (11736915_at) / RFU CASKIN2 (11723855_a_at) / Fold change /veh CASKIN2 (11723855_a_at) / RFU LOC730098 (11760151_x_at) / Fold change /veh LOC730098 (11760151_x_at) / RFU OR4N2 (11742367_at) / Fold change /veh OR4N2 (11742367_at) / RFU PRRT2 (11749266_a_at) / Fold change /veh PRRT2 (11749266_a_at) / RFU SNX32 (11753110_a_at) / Fold change /veh SNX32 (11753110_a_at) / RFU CDHR5 (11726645_a_at) / Fold change /veh CDHR5 (11726645_a_at) / RFU RCAN1 (11760418_a_at) / Fold change /veh RCAN1 (11760418_a_at) / RFU FAM167A (11723789_a_at) / Fold change /veh FAM167A (11723789_a_at) / RFU FAM26E (11764081_at) / Fold change /veh FAM26E (11764081_at) / RFU ISYNA1 (11749810_s_at) / Fold change /veh ISYNA1 (11749810_s_at) / RFU ACY1 (11761880_at) / Fold change /veh ACY1 (11761880_at) / RFU 11764098_at / Fold change /veh 11764098_at / RFU SAMD14 (11745864_x_at) / Fold change /veh SAMD14 (11745864_x_at) / RFU NPB (11741838_a_at) / Fold change /veh NPB (11741838_a_at) / RFU TMPRSS6 (11731388_a_at) / Fold change /veh TMPRSS6 (11731388_a_at) / RFU KRTAP10-2 (11738614_at) / Fold change /veh KRTAP10-2 (11738614_at) / RFU ARHGAP8 /// PRR5-ARHGAP8 (11727945_x_at) / Fold change /veh ARHGAP8 /// PRR5-ARHGAP8 (11727945_x_at) / RFU KRTAP5-7 /// NADSYN1 (11734609_at) / Fold change /veh KRTAP5-7 /// NADSYN1 (11734609_at) / RFU RASL12 (11751679_a_at) / Fold change /veh RASL12 (11751679_a_at) / RFU CDKN2B (11736163_a_at) / Fold change /veh CDKN2B (11736163_a_at) / RFU PRF1 (11729649_at) / Fold change /veh PRF1 (11729649_at) / RFU, ZNF638 /// ZNF638-IT1 / Fold change vs veh, ZNF638 /// ZNF638-IT1 / RFU, PANK3 / Fold change vs veh, PANK3 / RFU, SH3YL1 / Fold change vs veh, SH3YL1 / RFU, ZEB2 / Fold change vs veh, ZEB2 / RFU, NRIP1 / Fold change vs veh, NRIP1 / RFU, PTTG1IP / Fold change vs veh, PTTG1IP / RFU, CAPN2 / Fold change vs veh, CAPN2 / RFU, MED14 / Fold change vs veh, MED14 / RFU, SNORA58 / Fold change vs veh, SNORA58 / RFU, C1orf63 / Fold change vs veh, C1orf63 / RFU, LRRFIP1 / Fold change vs veh, LRRFIP1 / RFU, NDUFAF7 / Fold change vs veh, NDUFAF7 / RFU, SLC12A2 / Fold change vs veh, SLC12A2 / RFU, IBTK / Fold change vs veh, IBTK / RFU, ESF1 / Fold change vs veh, ESF1 / Fold change vs veh, TMEM50B / RFU, TAOK1 / Fold change vs veh, TAOK1 / RFU, ACBD3 / Fold change vs veh, ACBD3 / RFU, TMA16 / Fold change vs veh, TMA16 / RFU, RWDD3 / Fold change vs veh, RWDD3 / RFU, BCAT1 / Fold change vs veh, BCAT1 / RFU, EDEM3 / Fold change vs veh, EDEM3 / RFU, TMEM33 / Fold change vs veh, TMEM33 / RFU, WDR75 / Fold change vs veh, WDR75 / RFU, AHCTF1 / Fold change vs veh, AHCTF1 / RFU, TFRC / Fold change vs veh, TFRC / RFU, ZDHHC17 / Fold change vs veh, ZDHHC17 / RFU, NOM1 / Fold change vs veh, NOM1 / RFU, ARL8B / Fold change vs veh, ARL8B / RFU, ZBTB11 / Fold change vs veh, ZBTB11 / RFU, TAMM41 / Fold change vs veh, TAMM41 / RFU, KIAA1704 /// LOC100996395 / Fold change vs veh, KIAA1704 /// LOC100996395 / RFU, ING1 / Fold change vs veh, ING1 / RFU, TRMT61B / Fold change vs veh, TRMT61B / RFU, FUBP3 / Fold change vs veh, FUBP3 / RFU, TP53 / Fold change vs veh, TP53 / RFU, TNKS2 / Fold change vs veh, TNKS2 / RFU, ZFP14 / Fold change vs veh, ZFP14 / RFU, ACTR2 / Fold change vs veh, ACTR2 / RFU, PPP3R1 / Fold change vs veh, PPP3R1 / RFU, PIK3R1 / Fold change vs veh, PIK3R1 / RFU, HNRNPA1 / Fold change vs veh, HNRNPA1 / RFU, RNF170 / Fold change vs veh, RNF170 / RFU, ZNF28 / Fold change vs veh, ZNF28 / RFU, RNGTT / Fold change vs veh, RNGTT / RFU, OGT / Fold change vs veh, OGT / RFU, BRD1 / Fold change vs veh, BRD1 / RFU, MARS / Fold change vs veh, MARS / RFU, ZNF655 / Fold change vs veh, ZNF655 / RFU, FAHD1 / Fold change vs veh, FAHD1 / RFU, BDP1 / Fold change vs veh, BDP1 / RFU, LRRCC1 / Fold change vs veh, LRRCC1 / RFU, ARID1A / Fold change vs veh, ARID1A / RFU, ZNF146 / Fold change vs veh, ZNF146 / RFU, ZNF330 / Fold change vs veh, ZNF330 / RFU, GPN3 / Fold change vs veh, GPN3 / RFU, C9orf123 / Fold change vs veh, C9orf123 / RFU, N4BP2L2 / Fold change vs veh, N4BP2L2 / RFU, ARFIP1 / Fold change vs veh, ARFIP1 / RFU, FAM179B / Fold change vs veh, FAM179B / RFU, BCL10 / Fold change vs veh, BCL10 / RFU, UHRF1BP1L / Fold change vs veh, UHRF1BP1L / RFU, BET1 / Fold change vs veh, BET1 / RFU, CNOT2 / Fold change vs veh, CNOT2 / RFU, ZNF268 / Fold change vs veh, ZNF268 / Fold change vs veh, ZNF507 / RFU, DGCR2 / Fold change vs veh, DGCR2 / RFU, WDSUB1 / Fold change vs veh, WDSUB1 / Fold change vs veh, HSP90B1 /// MIR3652 / RFU, ADSS / Fold change vs veh, ADSS / RFU, GK / Fold change vs veh, GK / RFU, ZNF148 / Fold change vs veh, ZNF148 / RFU, TAF9 / Fold change vs veh, TAF9 / RFU, SLC1A5 / Fold change vs veh, SLC1A5 / RFU, SLMO2 / Fold change vs veh, SLMO2 / RFU, ABCC4 / Fold change vs veh, ABCC4 / RFU, LOC101060439 /// RAP1B / Fold change vs veh, LOC101060439 /// RAP1B / RFU, RFX7 / Fold change vs veh, RFX7 / RFU, GTPBP10 / Fold change vs veh, GTPBP10 / RFU, CNEP1R1 / Fold change vs veh, CNEP1R1 / RFU, BIVM-ERCC5 /// ERCC5 / Fold change vs veh, BIVM-ERCC5 /// ERCC5 / RFU, ILF3 / Fold change vs veh, ILF3 / RFU 11762660_at / Fold change /veh 11762660_at / RFU VCAN (11757783_s_at) / Fold change /veh VCAN (11757783_s_at) / RFU DDX43 (11728927_at) / Fold change /veh DDX43 (11728927_at) / RFU KRT8 (11758188_x_at) / Fold change /veh KRT8 (11758188_x_at) / RFU NKD1 (11759106_at) / Fold change /veh NKD1 (11759106_at) / RFU SRD5A1 (11742802_a_at) / Fold change /veh SRD5A1 (11742802_a_at) / RFU TPSAB1 /// TPSB2 (11721975_s_at) / Fold change /veh TPSAB1 /// TPSB2 (11721975_s_at) / RFU GSTM3 (11746129_a_at) / Fold change /veh GSTM3 (11746129_a_at) / RFU IL23R (11737362_x_at) / Fold change /veh IL23R (11737362_x_at) / RFU TMEM51 (11727254_a_at) / Fold change /veh TMEM51 (11727254_a_at) / RFU PIWIL2 (11732686_x_at) / Fold change /veh PIWIL2 (11732686_x_at) / RFU ORM1 (11744905_x_at) / Fold change /veh ORM1 (11744905_x_at) / RFU CCDC152 (11743942_at) / Fold change /veh CCDC152 (11743942_at) / RFU ECM1 (11717891_a_at) / Fold change /veh ECM1 (11717891_a_at) / RFU IL23R (11748794_a_at) / Fold change /veh IL23R (11748794_a_at) / RFU TNFAIP8L3 (11732012_x_at) / Fold change /veh TNFAIP8L3 (11732012_x_at) / RFU MBOAT4 (11741988_at) / Fold change /veh MBOAT4 (11741988_at) / RFU 11764193_at / Fold change /veh 11764193_at / RFU TMEM53 (11763286_at) / Fold change /veh TMEM53 (11763286_at) / RFU MAGEB2 (11727129_at) / Fold change /veh MAGEB2 (11727129_at) / RFU TMEM200A (11744735_a_at) / Fold change /veh TMEM200A (11744735_a_at) / RFU CCDC152 (11751479_a_at) / Fold change /veh CCDC152 (11751479_a_at) / RFU FAM211A (11726209_a_at) / Fold change /veh FAM211A (11726209_a_at) / RFU RGS16 (11746705_a_at) / Fold change /veh RGS16 (11746705_a_at) / RFU VCAN (11755009_s_at) / Fold change /veh VCAN (11755009_s_at) / RFU RHOB (11743442_s_at) / Fold change /veh RHOB (11743442_s_at) / RFU RGS16 (11720943_a_at) / Fold change /veh RGS16 (11720943_a_at) / RFU RGS16 (11720944_at) / Fold change /veh RGS16 (11720944_at) / RFU, VPS4B / Fold change vs veh, VPS4B / RFU, CREB1 / Fold change vs veh, CREB1 / RFU, DNAJC13 / Fold change vs veh, DNAJC13 / RFU, GNAQ / Fold change vs veh, GNAQ / RFU, CDK5R1 / Fold change vs veh, CDK5R1 / RFU, ZRANB3 / Fold change vs veh, ZRANB3 / RFU, CUL4A / Fold change vs veh, CUL4A / RFU, CCNY / Fold change vs veh, CCNY / RFU, UFL1 / Fold change vs veh, UFL1 / RFU, COG3 / Fold change vs veh, COG3 / RFU, DIAPH2 / Fold change vs veh, DIAPH2 / RFU, SKA2 / Fold change vs veh, SKA2 / RFU, AFF3 / Fold change vs veh, AFF3 / RFU, LMF1 / Fold change vs veh, LMF1 / RFU, IPO11 / Fold change vs veh, IPO11 / RFU, DFFB / Fold change vs veh, DFFB / RFU, FOXP1 / Fold change vs veh, FOXP1 / RFU, CARD8 / Fold change vs veh, CARD8 / RFU, STRN3 / Fold change vs veh, STRN3 / RFU, ADK / Fold change vs veh, ADK / RFU, RASSF2 / Fold change vs veh, RASSF2 / RFU, WIPF1 / Fold change vs veh, WIPF1 / RFU, LARP1B / Fold change vs veh, LARP1B / RFU, RASA1 / Fold change vs veh, RASA1 / RFU, RB1 / Fold change vs veh, RB1 / RFU, PPFIA1 / Fold change vs veh, PPFIA1 / RFU, MAT2A / Fold change vs veh, MAT2A / RFU, CCT5 / Fold change vs veh, CCT5 / RFU, WDR92 / Fold change vs veh, WDR92 / RFU, CUX1 / Fold change vs veh, CUX1 / RFU, TTC7A / Fold change vs veh, TTC7A / RFU, TMEM135 / Fold change vs veh, TMEM135 / RFU, DEPTOR / Fold change vs veh, DEPTOR / RFU, CPM / Fold change vs veh, CPM / RFU, DNAJB6 / Fold change vs veh, DNAJB6 / RFU, CACNA2D3 / Fold change vs veh, CACNA2D3 / RFU, DTX4 / Fold change vs veh, DTX4 / RFU, TFCP2 / Fold change vs veh, TFCP2 / RFU, GMCL1 /// GMCL1P1 / Fold change vs veh, GMCL1 /// GMCL1P1 / RFU, AEBP2 / Fold change vs veh, AEBP2 / RFU, SNHG1 /// SNORD22 /// SNORD25 /// SNORD26 /// SNORD27 /// SNORD28 /// SNORD29 /// SNORD31 / Fold change vs veh, SNHG1 /// SNORD22 /// SNORD25 /// SNORD26 /// SNORD27 /// SNORD28 /// SNORD29 /// SNORD31 / Fold change (Aza/veh), C12orf56 (ProbeSet 11735607_a_at) / Fold change (ACY-1035/veh), C12orf56 (ProbeSet 11735607_a_at) / Fold change (Aza/veh), FGFR1OP (ProbeSet 11751329_s_at) / Fold change (ACY-1035/veh), FGFR1OP (ProbeSet 11751329_s_at) / Fold change (Aza/veh), VPS36 (ProbeSet 11739960_a_at) / Fold change (ACY-1035/veh), VPS36 (ProbeSet 11739960_a_at) / RFU SYPL1 (11715823_x_at) / Fold change /veh SYPL1 (11715823_x_at) / RFU IGFBP7 (11715501_s_at) / Fold change /veh IGFBP7 (11715501_s_at) / RFU REEP3 (11722064_at) / Fold change /veh REEP3 (11722064_at) / RFU IGLL1 (11728026_x_at) / Fold change /veh IGLL1 (11728026_x_at): dose or concentration left out as unconfirmed
Conditions: MV-4-11 cells, 48 hours

Nc1ncn([C@@H]2O[C@H](CO)[C@@H](O)[C@H]2O)c(=O)n1 [azacitidine]
RFU SAMD14 (11745864_x_at): 17.52 RFU
